From PMC10740061 (Food Chemistry: X, 2023)
Marks after values point to notes of the source that are not given here.

Tested on: Caco-2 monolayer
Test: Caco-2 monolayer transmembrane transport, apical to basolateral
Assay type: in vitro ADME, human
Conditions: for PappAtoB: 40 µM flavonoid, 6 h, A to B, mean ± SD (n = 3); for apparent permeability coefficient (in words): comparison among the dietary flavonoids, Table 2
[1] = RD (rice flour digested products) 400 µg/mL
[2] = WD (wheat flour digested products) 400 µg/mL

| Structure (SMILES) | PappAtoB (No substrate) | PappAtoB [1] | Increase in PappAtoB (RD vs no substrate) | Increase in PappAtoB (WD vs no substrate) | apparent permeability coefficient (in words) | PappAtoB [2] | change of apparent permeability coefficient (in words) (RD group vs no substrate) | change of apparent permeability coefficient (in words) (WD group vs no substrate) |
| --- | --- | --- | --- | --- | --- | --- | --- | --- |
| Oc1cc(O)c2c(c1)O[C@H](c1ccc(O)c(O)c1)[C@@H](O)C2 [(+)-Catechin] | 11.22 ± 0.06^a × 10^-6 cm/s | 18.75 ± 0.09^b × 10^-6 cm/s | 0.67 | −0.04 | notably higher apparent permeability coefficients |  |  |  |
| Oc1cc(O)c2c(c1)O[C@H](c1ccc(O)c(O)c1)[C@H](O)C2 [(-)-Epicatechin] |  | 37.30 ± 0.04^c × 10^-6 cm/s | 0.62 | 0.18 | notably higher apparent permeability coefficients | 27.24 ± 0.45^b × 10^-6 cm/s |  |  |
| O=c1cc(-c2ccc(O)cc2)oc2cc(O[C@@H]3O[C@H](CO)[C@@H](O)[C@H](O)[C@H]3O)cc(O)c12 [Apigenin-7-O-glucoside] |  | 6.37 ± 0.02^a × 10^-6 cm/s | 0.11 | 0.95 |  | 11.24 ± 0.64^b × 10^-6 cm/s |  |  |
| O=c1cc(-c2ccc(O)cc2)oc2cc(O)cc(O)c12 [Apigenin] |  | 3.13 ± 0.01^b × 10^-6 cm/s | 0.90 | 1.54 | comparatively poor | 4.18 ± 0.06^c × 10^-6 cm/s |  |  |
| O=c1cc(-c2ccccc2)oc2cc(O)c(O)c(O)c12 [Baicalein] |  | 2.28 ± 0.01^a × 10^-6 cm/s | −0.21 | 0.31 | comparatively poor | 3.79 ± 0.10^c × 10^-6 cm/s | decrease in the apparent permeability coefficient | increase |
| OC[C@H]1O[C@@H](Oc2cc3c(O)cc(O)cc3[o+]c2-c2ccc(O)c(O)c2)[C@H](O)[C@@H](O)[C@@H]1O [Cyanidin-3-O-glucoside] | 7.96 ± 0.08^a × 10^-6 cm/s | 7.85 ± 0.07^a × 10^-6 cm/s | −0.01 | 0.00 |  | 7.97 ± 0.06^a × 10^-6 cm/s |  |  |
| O=C1c2c(O)cc(O)cc2O[C@H](c2cc(O)c(O)c(O)c2)[C@H]1O [Dihydromyricetin] |  | 16.38 ± 0.03^b × 10^-6 cm/s | −0.05 | −0.14 | notably higher apparent permeability coefficients | 14.82 ± 0.15^a × 10^-6 cm/s |  |  |
| COc1ccc(-c2coc3cc(O)ccc3c2=O)cc1 [Formononetin] |  | 12.01 ± 0.01^a × 10^-6 cm/s | −0.49 | −0.05 | notably higher apparent permeability coefficients | 22.68 ± 0.95^b × 10^-6 cm/s | decrease in permeability |  |
| O=c1c(O)c(-c2ccccc2)oc2cc(O)cc(O)c12 [Galangin] |  | 8.76 ± 0.01^b × 10^-6 cm/s | 0.28 | 0.75 |  | 12.01 ± 0.49^c × 10^-6 cm/s |  |  |
| O=c1c(-c2ccc(O)cc2)coc2cc(O)cc(O)c12 [Genistein] |  | 14.45 ± 0.09^b × 10^-6 cm/s | 0.21 | 0.92 |  | 22.89 ± 0.09^c × 10^-6 cm/s |  |  |
| COc1ccc([C@@H]2CC(=O)c3c(O)cc(O)cc3O2)cc1O [Hesperetin] |  | 1.98 ± 0.02^a × 10^-6 cm/s | −0.73 | 0.67 |  | 12.18 ± 0.53^c × 10^-6 cm/s | decrease in permeability |  |
| COc1cc(-c2oc3cc(O)cc(O)c3c(=O)c2O[C@@H]2O[C@H](CO[C@@H]3O[C@@H](C)[C@H](O)[C@@H](O)[C@H]3O)[C@@H](O)[C@H](O)[C@H]2O)ccc1O [Isorhamnetin-3-O-rutinoside] | 7.78 ± 0.05^b × 10^-6 cm/s | 5.40 ± 0.09^a × 10^-6 cm/s | −0.31 | 0.50 |  | 11.68 ± 0.07^c × 10^-6 cm/s |  |  |
| COc1cc(-c2oc3cc(O)cc(O)c3c(=O)c2O)ccc1O [Isorhamnetin] |  | 6.64 ± 0.03^a × 10^-6 cm/s | −0.29 | 0.23 |  | 11.42 ± 0.91^c × 10^-6 cm/s |  |  |
| O=c1c(O)c(-c2ccc(O)cc2)oc2cc(O[C@@H]3O[C@H](CO)[C@@H](O)[C@H](O)[C@H]3O)cc(O)c12 [Kaempferol-7-O-β-glucoside] | 0.64 ± 0.05^a × 10^-6 cm/s | 1.26 ± 0.02^b × 10^-6 cm/s | 0.96 | 4.71 | comparatively poor | 3.67 ± 0.15^c × 10^-6 cm/s |  |  |
| O=c1c(O)c(-c2cc(O)c(O)c(O)c2)oc2cc(O)cc(O)c12 [Myricetin] |  | 9.07 ± 0.01^b × 10^-6 cm/s | 0.63 | 2.21 |  | 17.79 ± 0.03^c × 10^-6 cm/s |  |  |
| O=C1C[C@@H](c2ccc(O)cc2)Oc2cc(O)cc(O)c21 [Naringenin] |  | 5.43 ± 0.06^a × 10^-6 cm/s | −0.57 | −0.12 | notably higher apparent permeability coefficients | 11.15 ± 1.54^b × 10^-6 cm/s |  |  |
| C[C@@H]1O[C@@H](O[C@H]2[C@H](Oc3cc(O)c4c(c3)O[C@H](c3ccc(O)cc3)CC4=O)O[C@H](CO)[C@@H](O)[C@@H]2O)[C@H](O)[C@H](O)[C@H]1O [Naringin] |  | 1.80 ± 0.01^b × 10^-6 cm/s | 0.34 | 0.77 |  | 2.38 ± 0.09^c × 10^-6 cm/s |  |  |
| O=c1c(O)c(-c2ccc(O)c(O)c2)oc2cc(O)cc(O)c12 [Quercetin] |  | 6.54 ± 0.03^a × 10^-6 cm/s | −0.29 | 0.18 |  |  |  |  |
| C[C@@H]1O[C@@H](Oc2c(-c3ccc(O)c(O)c3)oc3cc(O)cc(O)c3c2=O)[C@H](O)[C@H](O)[C@H]1O [Quercitrin] |  | 1.47 ± 0.05^a × 10^-6 cm/s | −0.73 | 0.72 |  | 9.61 ± 0.28^c × 10^-6 cm/s |  |  |
| O=C1c2c(O)cc(O)cc2OC(c2ccc(O)c(O)c2)C1O (stereo not shown) [Taxifolin] |  | 15.66 ± 0.09^a × 10^-6 cm/s | −0.37 | −0.29 | notably higher apparent permeability coefficients | 17.71 ± 0.43^b × 10^-6 cm/s |  |  |
| O=c1cc(-c2ccc(O)cc2)oc2c([C@@H]3O[C@H](CO)[C@@H](O)[C@H](O)[C@H]3O)c(O)cc(O)c12 [Vitexin] |  | 25.87 ± 0.04^b × 10^-6 cm/s | −0.09 | −0.46 | highest apparent permeability coefficient | 15.54 ± 0.46^a × 10^-6 cm/s |  |  |
